Assay results published in patent publication US10780090B2, “Heteroaryl compounds useful as inhibitors of SUMO activating enzyme” (Millennium Pharmaceuticals, Inc., priority 2014, dated 2020).

Target: recombinant human SAE enzyme (Homo sapiens (Human), UniProt Q9UBT2)
Experiment: SAE HTRF enzyme assay
Format: biochemical
Conditions: for inhibition at 0.111 µM: read-out: Percent Inhibition
Summary of the method: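 First, recombinant human SAE (0.11 nM) transfers Sumo-Flag onto Ubc9-GST using 0.5 μM ATP for 105 min at 24° C. Next, EDTA-containing detection buffer with labelled anti-Flag and anti-GST antibodies is added for 2 h. Finally, FRET is quantified and percent inhibition or IC50 derived.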

[1] = SAE inhibition at compound concentration 0.111 μM
[2] = SAE inhibition, class symbols, legend in nM

Chain of recombinant human SAE enzyme (Q9UBT2 whole entry): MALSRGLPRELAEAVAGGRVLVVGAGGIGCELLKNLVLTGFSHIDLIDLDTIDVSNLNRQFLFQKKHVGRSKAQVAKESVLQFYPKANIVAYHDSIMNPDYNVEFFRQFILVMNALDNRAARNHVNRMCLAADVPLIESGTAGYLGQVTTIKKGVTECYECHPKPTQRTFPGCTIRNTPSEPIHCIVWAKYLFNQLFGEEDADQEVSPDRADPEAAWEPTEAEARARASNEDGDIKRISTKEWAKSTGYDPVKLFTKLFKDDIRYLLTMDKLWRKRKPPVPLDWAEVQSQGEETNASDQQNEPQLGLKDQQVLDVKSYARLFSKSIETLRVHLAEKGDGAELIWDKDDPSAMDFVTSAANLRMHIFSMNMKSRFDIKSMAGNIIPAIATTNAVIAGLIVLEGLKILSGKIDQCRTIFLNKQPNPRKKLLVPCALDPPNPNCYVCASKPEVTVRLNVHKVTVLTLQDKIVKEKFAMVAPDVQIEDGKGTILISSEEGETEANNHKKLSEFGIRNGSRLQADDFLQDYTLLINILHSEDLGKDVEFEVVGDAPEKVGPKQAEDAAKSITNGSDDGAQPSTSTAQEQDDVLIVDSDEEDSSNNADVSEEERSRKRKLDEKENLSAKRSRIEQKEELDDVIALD
Chain of recombinant human SAE enzyme (Q9UBE0 whole entry partner): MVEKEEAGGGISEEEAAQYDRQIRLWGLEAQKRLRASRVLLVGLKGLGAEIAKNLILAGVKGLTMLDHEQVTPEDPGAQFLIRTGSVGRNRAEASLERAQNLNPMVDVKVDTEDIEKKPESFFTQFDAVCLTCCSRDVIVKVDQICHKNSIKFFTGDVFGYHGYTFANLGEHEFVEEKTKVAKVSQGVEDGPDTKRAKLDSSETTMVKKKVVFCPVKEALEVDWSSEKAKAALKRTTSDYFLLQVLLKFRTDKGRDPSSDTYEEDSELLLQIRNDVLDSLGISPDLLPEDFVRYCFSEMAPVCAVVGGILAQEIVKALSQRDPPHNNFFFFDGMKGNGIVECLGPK

Row | SMILES | Percent Inhibition [1] [%] | IC50 [2] [nM] | inhibition at 0.111 µM (Concentration 0.111 μM) [%] | IC50 (class symbols A/B/C) [nM] | Percent Inhibition (Concentration 0.111 μM)
1 | Cc1nc2n(c1C)CCO[C@@H]2c1cc(C(=O)c2cncnc2N[C@@H]2C[C@H](COS(N)(=O)=O)[C@@H](O)C2)sc1C (mixture of isomers) [I-356, ((1R,2S,4R)-4-{(5-(4-((R)-2,3-dimethyl-6,8-dihydro-5H-imidazo[2,1-c][1,4c]oxazin-8-yl)-5-methylthiophene-2-carbonyl)pyrimidin-4-yl)amino)-2-hydroxycyclopentyl)methyl sulfamate and ((1R,2S,4R)-4-((5-4-((S)-2,3-dimethyl-6,8-dihydro-5H-imidazo[2,1-c][1,4]oxazin-8-yl)-5-methylthiophene-2-carbonyl)pyrimidin-4-yl)amino)-2-hydroxycyclopentyl)methyl sulfamate] | 97 | < 10 |  |  | 
2 | Cc1sc(C(=O)c2cncnc2N[C@@H]2C[C@H](COS(N)(=O)=O)[C@@H](O)C2)cc1[C@@H]1OCCc2cnc(Cl)cc21 (mixture of isomers) [I-316, [(1R,2S,4R)-4-{[5-({4-[(1R)-7-chloro-3,4-dihydro-1H-pyrano[4,3-c]pyridin-1-yl]-5-methyl-2-thienyl}carbonyl)pyrimidin-4-yl]amino}-2-hydroxycyclopentyl]methyl sulfamate and [(1R,2S,4R)-4-{[5-({4-[(1S)-7-chloro-3,4-dihydro-1H-pyrano[4,3-c]pyridin-1-yl]-5-methyl-2-thienyl}carbonyl)pyrimidin-4-yl]amino}-2-hydroxycyclopentyl]methyl sulfamate] | 94 | < 10 |  |  | 
3 | NS(=O)(=O)OC[C@H]1C[C@@H](Nc2ncncc2C(=O)c2cc(CC3=CCOCC3)cs2)C[C@@H]1O [I-196, {(1R,2S,4R)-4-[(5-{[4-(3,6-dihydro-2H-pyran-4-ylmethyl)-2-thienyl]carbonyl}pyrimidin-4-yl)amino]-2-hydroxycyclopentyl}methyl sulfamate] |  |  | 63 | 10 to 100 | 
4 | COc1ccc(Cl)cc1[C@@H](O)c1cc(C(=O)c2cncnc2N[C@@H]2C[C@H](COS(N)(=O)=O)[C@@H](O)C2)sc1Cl (mixture of isomers) [I-63, [(1R,2S,4R)-4-{[5-({5-chloro-4-[(R)-(5-chloro-2-methoxyphenyl)(hydroxy)methyl]-2-thienyl}carbonyl)pyrimidin-4-yl]amino}-2-hydroxycyclopentyl]methyl sulfamate and [(1R,2S,4R)-4-{[5-({5-chloro-4-[(S)-(5-chloro-2-methoxyphenyl)(hydroxy)methyl]-2-thienyl}carbonyl)pyrimidin-4-yl]amino}-2-hydroxycyclopentyl]methyl sulfamate] |  |  |  | < 10 | 97
5 | Cc1sc(C(=O)c2cncnc2N[C@@H]2C[C@H](COS(N)(=O)=O)[C@@H](O)C2)cc1C1OCCc2ccc(C(F)(F)F)nc21 (single isomer, unassigned) [I-297b, [(1R,2S,4R)-2-hydroxy-4-{[5-({5-methyl-4-[(8S)-2-(trifluoromethyl)-5,8-dihydro-6H-pyrano[3,4-b]pyridin-8-yl]-2-thienyl}carbonyl)pyrimidin-4-yl]amino}cyclopentyl]methyl sulfamate or [(1R,2S,4R)-2-hydroxy-4-{[5-({5-methyl-4-[(8R)-2-(trifluoromethyl)-5,8-dihydro-6H-pyrano[3,4-b]pyridin-8-yl]-2-thienyl}carbonyl)pyrimidin-4-yl]amino}cyclopentyl]methyl sulfamate] | 99 | < 10 |  |  | 
6 | NS(=O)(=O)OC[C@H]1C[C@@H](Nc2ncncc2C(=O)c2cc(Cc3cccc(Br)c3)c(Cl)s2)C[C@@H]1O [I-112, {(1R,2S,4R)-4-[(5-{[4-(3-bromobenzyl)-5-chloro-2-thienyl]carbonyl}pyrimidin-4-yl)amino]-2-hydroxycyclopentyl}methyl sulfamate] |  |  | 97 |  | 
7 | NS(=O)(=O)OC[C@H]1C[C@@H](Nc2ncncc2C(=O)c2cc(Cc3ccc(C(F)(F)F)o3)cs2)C[C@@H]1O [I-119, [(1R,2S,4R)-2-Hydroxy-4-{(5-[(4-{[5-(trifluoromethyl)-2-furyl]methyl}-2-thienyl)carbonyl]pyrimidin-4-yl}amino)cyclopentyl]methyl sulfamate] |  |  | 96 | < 10 | 
8 | Cc1sc(C(=O)c2cncnc2N[C@@H]2C[C@H](COS(N)(=O)=O)[C@@H](O)C2)cc1[C@@H]1NCCc2ccc(Cl)cc21 [I-263a, [(1R,2S,4R)-4-[[5-[4-[(1R)-7-chloro-1,2,3,4-tetrahydroisoquinolin-1-yl]-5-methyl-thiophene-2-carbonyl]pyrimidin-4-yl]amino]-2-hydroxy-cyclopentyl]methyl sulfamate] |  |  | 101 | < 10 | 
9 | NS(=O)(=O)OC[C@H]1C[C@@H](Nc2ncncc2C(=O)c2cc(Cc3cccc(Br)c3)c(Cl)s2)[C@H](O)[C@@H]1O [I-76, {(1R,2R,3S,4R)-4-[(5-{[4-(3-bromobenzyl)-5-chloro-2-thienyl]carbonyl}pyrimidin-4-yl)amino]-2,3-dihydroxycyclopentyl}methyl sulfamate] |  |  | 99 | < 10 | 
10 | C[C@@](O)(c1cccc(Br)c1)c1csc(C(=O)c2cncnc2N[C@@H]2C[C@H](COS(N)(=O)=O)[C@@H](O)C2)c1.C[C@](O)(c1cccc(Br)c1)c1csc(C(=O)c2cncnc2N[C@@H]2C[C@H](COS(N)(=O)=O)[C@@H](O)C2)c1 (mixture of isomers) [I-3, [(1R,2S,4R)-4-{[5-({4-[(1S)-1-(3-Bromophenyl)-1-hydroxyethyl]-2-thienyl}carbonyl)pyrimidin-4-yl]amino}-2-hydroxycyclopentyl]methyl sulfamate and [(1R,2S,4R)-4-{[5-({4-[(1R)-1-(3-Bromophenyl)-1-hydroxyethyl]-2-thienyl}carbonyl)pyrimidin-4-yl]amino}-2-hydroxycyclopentyl]methyl sulfamate] |  |  |  | < 10 | 100
11 | Cc1sc(C(=O)c2cncnc2N[C@@H]2C[C@H](COS(N)(=O)=O)[C@@H](O)C2)cc1[C@H]1OCC(F)(F)c2ccc(Cl)nc21 (single isomer, unassigned) [I-260a, [(1R,2S,4R)-4-{[5-({4-[(8R)-2-chloro-5,5-difluoro-5,8-dihydro-6H-pyrano[3,4-b]pyridin-8-yl]-5-methyl-2-thienyl}carbonyl)pyrimidin-4-yl]amino}-2-hydroxycyclopentyl]methyl sulfamate or [(1R,2S,4R)-4-{[5-({4-[(8S)-2-chloro-5,5-difluoro-5,8-dihydro-6H-pyrano[3,4-b]pyridin-8-yl]-5-methyl-2-thienyl}carbonyl)pyrimidin-4-yl]amino}-2-hydroxycyclopentyl]methyl sulfamate] |  |  |  | < 10 | 99
12 | NS(=O)(=O)OC[C@H]1C[C@@H](Nc2ncncc2C(=O)c2cc(COc3ccccc3Br)cs2)C[C@@H]1O [I-98, [(1R,2S,4R)-4-{[5-({4-[(2-bromophenoxy)methyl]-2-thienyl}carbonyl)pyrimidin-4-yl]amino}-2-hydroxycyclopentyl]methyl sulfamate] |  |  | 97 | < 10 | 
13 | NS(=O)(=O)OC[C@H]1C[C@@H](Nc2ncncc2C(=O)c2cc([C@@H]3OCCCc4ccc(Cl)cc43)cs2)C[C@@H]1O (mixture of isomers) [I-314, [(1R,2S,4R)-4-{[5-({4-[(1R)-8-chloro-1,3,4,5-tetrahydro-2-benzoxepin-1-yl]-2-thienyl}carbonyl)pyrimidin-4-yl]amino}-2-hydroxycyclopentyl]methyl sulfamate and [(1R,2S,4R)-4-{[5-({4-[(1S)-8-chloro-1,3,4,5-tetrahydro-2-benzoxepin-1-yl]-2-thienyl}carbonyl)pyrimidin-4-yl]amino}-2-hydroxycyclopentyl]methyl sulfamate] | 95 | < 10 |  |  | 
14 | NS(=O)(=O)OC[C@H]1C[C@@H](Nc2ncncc2C(=O)c2cc([C@@H]3OCCc4ccc(Cl)nc43)c(Cl)s2)C[C@@H]1O (single isomer, unassigned) [I-276a, [(1R,2S,4R)-4-{[5-({5-chloro-4-[(8S)-2-chloro-5,8-dihydro-6H-pyrano[3,4-b]pyridin-8-yl]-2-thienyl}carbonyl)pyrimidin-4-yl]amino}-2-hydroxycyclopentyl]methyl sulfamate or [(1R,2S,4R)-4-{[5-({5-chloro-4-[(8R)-2-chloro-5,8-dihydro-6H-pyrano[3,4-b]pyridin-8-yl]-2-thienyl}carbonyl)pyrimidin-4-yl]amino}-2-hydroxycyclopentyl]methyl sulfamate] |  |  |  | 100 to 1000 | 28
15 | C[C@@]1(c2csc(C(=O)c3cncnc3N[C@@H]3C[C@H](COS(N)(=O)=O)[C@@H](O)C3)c2)NCCc2ccccc21.C[C@]1(c2csc(C(=O)c3cncnc3N[C@@H]3C[C@H](COS(N)(=O)=O)[C@@H](O)C3)c2)NCCc2ccccc21 (mixture of isomers) [I-318, [(1R,2S,4R)-2-hydroxy-4-{[5-({4-[(1R)-1-methyl-1,2,3,4-tetrahydroisoquinolin-1-yl]-2-thienyl}carbonyl)pyrimidin-4-yl]amino}cyclopentyl]methyl sulfamate and [(1R,2S,4R)-2-hydroxy-4-{[5-({4-[(1S)-1-methyl-1,2,3,4-tetrahydroisoquinolin-1-yl]-2-thienyl}carbonyl)pyrimidin-4-yl]amino}cyclopentyl]methyl sulfamate] | 95 | < 10 |  |  | 
16 | C=C(c1cccc(Cl)c1)c1cc(C(=O)c2cncnc2N[C@@H]2C[C@H](COS(N)(=O)=O)[C@@H](O)C2)sc1C [I-100, [(1R,2S,4R)-4-{[5-({4-[1-(3-Chlorophenyl)vinyl]-5-methyl-2-thienyl}carbonyl)pyrimidin-4-yl]amino}-2-hydroxycyclopentyl]methyl sulfamate] |  |  | 97 | < 10 | 
